This is an account of results in patent publication US20260265233A1, “BENZOTHIOPHENE DERIVATIVES AS RXFP1 AGONISTS” (BRISTOL-MYERS SQUIBB COMPANY, priority 2021, published 2026).

The assay deals with T1, human RXFP1 (Homo sapiens, UniProt Q9HBX9).
T1 construct: expressed in transfected cells
T1 sequence (Q9HBX9 1-757): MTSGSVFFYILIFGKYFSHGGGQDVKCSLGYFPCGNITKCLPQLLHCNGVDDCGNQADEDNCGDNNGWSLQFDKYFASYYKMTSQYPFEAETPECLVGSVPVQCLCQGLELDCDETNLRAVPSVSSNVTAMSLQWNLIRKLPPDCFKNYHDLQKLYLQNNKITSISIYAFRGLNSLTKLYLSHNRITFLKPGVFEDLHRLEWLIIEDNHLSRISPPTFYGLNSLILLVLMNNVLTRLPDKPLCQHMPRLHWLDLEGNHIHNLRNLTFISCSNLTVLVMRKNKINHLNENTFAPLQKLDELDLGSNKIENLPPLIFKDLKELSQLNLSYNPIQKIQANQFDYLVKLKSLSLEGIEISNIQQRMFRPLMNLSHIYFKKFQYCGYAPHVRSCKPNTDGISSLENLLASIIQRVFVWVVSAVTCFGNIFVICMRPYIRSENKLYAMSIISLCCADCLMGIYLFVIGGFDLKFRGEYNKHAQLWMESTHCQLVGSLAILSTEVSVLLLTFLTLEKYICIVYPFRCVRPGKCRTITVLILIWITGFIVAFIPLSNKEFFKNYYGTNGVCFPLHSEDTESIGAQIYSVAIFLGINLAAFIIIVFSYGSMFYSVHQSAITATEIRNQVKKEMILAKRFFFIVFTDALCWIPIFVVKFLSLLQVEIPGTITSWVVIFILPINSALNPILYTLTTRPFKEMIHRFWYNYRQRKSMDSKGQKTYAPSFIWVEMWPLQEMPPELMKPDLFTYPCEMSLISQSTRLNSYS
The assay is described as follows: hRXFP1 HEK293 cAMP assay (HTRF). Type of assay: cell-based. The conditions noted are these: HEK293 cells stably expressing human RXFP1; 30 min at rt; intracellular cAMP by HTRF. A digest of the protocol: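 HEK293 cells stably expressing human RXFP1 treated 30 min at rt with compound (0.010 nM to 50 μM, 2% DMSO) in HBSS/HEPES buffer with 0.5 mM IBMX. Intracellular cAMP measured by HTRF (665/590 nm ratio) against a cAMP standard curve; potency fitted by 4-parameter logistic.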
(Changes in cAMP serve as a functional read-out for many G protein-coupled receptors.)

As to `COc1ccc(C2CCN(C(=O)CCO)C2)cc1C(=O)Nc1c(C(=O)Nc2ccc(F)c(C(F)(F)F)c2)sc2cc(C(F)(F)F)ccc12` (centres unmarked) [Example 137, N-(4-fluoro-3-(trifluoromethyl)phenyl)-3-(5-(1-(3-hydroxypropanoyl)pyrrolidin-3-yl)-2-methoxy-benzamido)-6-(trifluoromethyl) benzo[b] thiophene-2-carboxamide], the half-maximal effective concentration (EC50) – broadly, the concentration at which the effect is half-maximal – was 591 nM.
The same measure for `COc1ccc(-c2cc(C(=O)O)ccc2F)cc1C(=O)Nc1c(C(=O)Nc2ccc(F)c(C(F)(F)F)c2)sc2ccccc12` [Example 15, 6-fluoro-3′-((2-((4-fluoro-3-(trifluoromethyl)phenyl)carbamoyl)benzo[b]thiophen-3-yl)carbamoyl)-4′-methoxy-[1, 1′-biphenyl]-3-carboxylic acid]: 1560 nM; for `COc1ccc(C2CCN(S(C)(=O)=O)C2)cc1C(=O)Nc1c(C(=O)Nc2ccc(F)c(C(F)(F)F)c2)sc2cc(C(F)(F)F)ccc12` (centres unmarked) [Example 148, N-(4-fluoro-3-(trifluoromethyl)phenyl)-3-(2-methoxy-5-(1-(methylsulfonyl)pyrrolidin-3-yl)benzamido)-6-(trifluoromethyl) benzo[b] thiophene-2-carboxamide]: 2240 nM.
The figure for `COc1ccc(C2=NOC(C)(CO)C2)cc1C(=O)Nc1c(C(=O)Nc2ccc(F)c(C(F)(F)F)c2)sc2cc(C(F)(F)F)ccc12` (single isomer, unassigned) [Example 253, N-(4-fluoro-3-(trifluoromethyl)phenyl)-3-(5-(5-(hydroxymethyl)-5-methyl-4,5-dihydroisoxazol-3-yl)-2-methoxy-benzamido)-6-(trifluoromethyl) benzo[b] thiophene-2-carboxamide] is 192 nM; for `COc1ccc(C2=NOC(C(C)(C)O)C2)cc1C(=O)Nc1c(C(=O)Nc2ccc(F)c(C(F)(F)F)c2)sc2cc(C(F)(F)F)ccc12` (single isomer, unassigned) [Example 258, N-[4-fluoro-3-(trifluoromethyl)phenyl]-3-{5-[5-(2-hydroxypropan-2-yl)-4,5-dihydro-1,2-oxazol-3-yl]-2-methoxy-benzamido}-6-(trifluoromethyl)-1-benzothiophene-2-carboxamide] it is 673 nM.
The same measure for `COc1ccc(C2=NOC3CNCC23)cc1C(=O)Nc1c(C(=O)Nc2ccc(F)c(C(F)(F)F)c2)sc2cc(C(F)(F)F)ccc12` (centres unmarked) [Example 246, N-(4-fluoro-3-(trifluoromethyl)phenyl)-3-(2-methoxy-5-(3a,5,6,6a-tetrahydro-4H-pyrrolo[3,4-d]isoxazol-3-yl)benzamido)-6-(trifluoromethyl) benzo[b] thiophene-2-carboxamide]: 724 nM; for `COc1ccc(-c2cccc(CNS(C)(=O)=O)c2)cc1C(=O)Nc1c(C(=O)Nc2ccc(F)c(C(F)(F)F)c2)sc2cc(C(F)(F)F)ccc12` [Example 121, N-(4-fluoro-3-(trifluoromethyl)phenyl)-3-(4-methoxy-3′-(methylsulfon-amidomethyl)-[1,1′-biphenyl]-3-carboxamido)-6-(trifluoromethyl) benzo[b] thiophene-2-carboxamide]: 111 nM; for `COc1ccc(C2CC3(C2)CN(CCS(C)(=O)=O)C3)cc1C(=O)Nc1c(C(=O)Nc2ccc(F)c(C(F)(F)F)c2)sc2cc(C(F)(F)F)ccc12` [Example 205, N-(4-fluoro-3-(trifluoromethyl)phenyl)-3-(2-methoxy-5-(2-(2-(methylsulfonyl)ethyl)-2-azaspiro[3.3]heptan-6-yl)benzamido)-6-(trifluoromethyl) benzo[b] thiophene-2-carboxamide]: 1100 nM.
Regarding “N-(4-fluoro-3- (trifluoromethyl) phenyl)-3-(4- methoxy-3′- (morpholino- sulfonyl)-[1,1′- biphenyl]-3- carboxamido)- 6- (trifluoromethyl) benzo[b] thiophene-2- carboxamide [Example 122]”, the concentration for a half-maximal effect (EC50) worked out at 41.8 nM. Against the preceding compound, the EC50 is about 26-fold lower.
The figure for `COc1ncc(C(=O)OC(C)(C)C)cc1C(=O)Nc1c(C(=O)Nc2ccc(F)c(C(F)(F)F)c2)sc2cc(C(F)(F)F)ccc12` [Example 223, tert-butyl 5-((2-((4-fluoro-3-(trifluoromethyl)phenyl)carbamoyl)-6-(trifluoromethyl)benzo[b]thiophen-3-yl)carbamoyl)-6-methoxynicotinate] is 1250 nM; for `COc1ccc(C2CCNC2)cc1C(=O)Nc1c(C(=O)Nc2ccc(F)c(C(F)(F)F)c2)sc2cc(C(F)(F)F)ccc12` (single isomer, unassigned) [Example 133, N-(4-fluoro-3-(trifluoromethyl)phenyl)-3-(2-methoxy-5-(pyrrolidin-3-yl)benzamido)-6-(trifluoromethyl) benzo[b] thiophene-2-carboxamide] it is 876 nM; for `COc1ccc(N2CCCCS2(=O)=O)cc1C(=O)Nc1c(C(=O)Nc2ccc(F)c(C(F)(F)F)c2)sc2cc(C(F)(F)F)ccc12` [Example 10, 3-(5-(1,1-dioxido-1,2-thiazinan-2-yl)-2-methoxybenzamido)-N-(4-fluoro-3-(trifluoromethyl)phenyl)-6-(trifluoromethyl)benzo[b]thiophene-2-carboxamide] it is 111 nM.
The same measure for `COc1ccc(C2CC2C(=O)N2CC(S(C)(=O)=O)C2)cc1C(=O)Nc1c(C(=O)Nc2ccc(F)c(C(F)(F)F)c2)sc2cc(C(F)(F)F)ccc12` (single isomer, unassigned) [Example 164, N-[4-fluoro-3-(trifluoromethyl)phenyl]-3-{5-[2-(3-methane-sulfonylazetidine-1-carbonyl)cyclopropyl]-2-methoxy-benzamido}-6-(trifluoromethyl)-1-benzothiophene-2-carboxamide]: 865 nM; for `COc1ccc(-c2noc(C(C)(C)O)n2)cc1C(=O)Nc1c(C(=O)Nc2ccc(F)c(C(F)(F)F)c2)sc2cc(C(F)(F)F)ccc12` [Example 59, N-(4-fluoro-3-(trifluoromethyl)phenyl)-3-(5-(5-(2-hydroxypropan-2-yl)-1,2,4-oxadiazol-3-yl)-2-methoxybenzamido)-6-(trifluoromethyl) benzo[b]thiophene-2-carboxamide]: 216 nM.
`COc1ccc(-c2cc([C@@H](C)O)on2)cc1C(=O)Nc1c(C(=O)Nc2ccc(F)c(C(F)(F)F)c2)sc2cc(C(F)(F)F)ccc12` [Example 275, (R)-N-(4-fluoro-3-(trifluoromethyl)phenyl)-3-(5-(5-(1-hydroxyethyl)isoxazol-3-yl)-2-methoxy-benzamido)-6-(trifluoromethyl) benzo[b] thiophene-2-carboxamide] registered an EC50 of 440 nM.
The compound `COc1ccc(C2CCCC(C)(O)C2)cc1C(=O)Nc1c(C(=O)Nc2ccc(F)c(C(F)(F)F)c2)sc2cc(C(F)(F)F)ccc12` (single isomer, unassigned) [Example 35, N-(4-fluoro-3-(trifluoromethyl)phenyl)-3-(5-(3-hydroxy-3-methylcyclohexyl)-2-methoxybenzamido)-6-(trifluoromethyl)benzo[b]thiophene-2-carboxamide] returned a 50% effective concentration (EC50) of 794 nM.
In the case of `COc1ccc(C2CCCN(C(=O)OC(C)(C)C)C2)cc1C(=O)Nc1c(C(=O)Nc2ccc(F)c(C(F)(F)F)c2)sc2cc(C(F)(F)F)ccc12` (centres unmarked) [Example 79, tert-butyl 3-(3-((2-((4-fluoro-3-(trifluoromethyl)phenyl)carbamoyl)-6-(trifluoromethyl)benzo[b]thiophen-3-yl)carbamoyl)-4-methoxyphenyl) piperidine-1-carboxylate], the EC50 was 390 nM.
